Patent US20240294551A1 (AMGEN INC., priority 2022, published 2024)
Like-named read-outs stand apart in the source and are kept apart here.

Columns and labels:
[1] = tested on: Phosphorylation of ERK1/2 in AsPC-1 cells; test: Phospho-ERK1/2 MSD Assay; type: cell-based, human; settings: Homo sapiens, ASPC1, 2 h
Method: AsPC-1 (ATCC® CRL-1682™) cells were cultured in RPMI 1640 Medium (ThermoFisher Scientific 11875093) containing 10% fetal bovine serum (ThermoFisher Scientific 16000044) and 1× penicillin-streptomycin-glutamine (ThermoFisher Scientific 10378016). Sixteen hours prior to compound treatment, AsPC-1 cells were seeded in 96-well cell culture plates at a density of 25,000 cells/well and incubated at 37° C., 5% CO2. A compound dose-response titration was diluted in growth media, added to appropriate wells of a cell culture plate, and then incubated at 37° C., 5% CO2 for 2 hours. Following compound treatment, cells were washed with ice-cold Dulbecco's phosphate-buffered saline, no Ca^2+ or Mg^2+ (ThermoFisher Scientific 14190144), and then lysed in RIPA buffer (50 mM Tris-HCl pH 7.5, 1% Igepal, 0.5% sodium deoxycholate, 150 mM NaCl, and 0.5% sodium dodecyl sulfate) containing protease inhibitors (Roche 4693132001) and phosphatase inhibitors (Roche 4906837001). Phosphorylation of ERK1/2 in compound-treated lysates was assayed using Phospho-ERK1/2 Whole Cell Lysate kits (Meso Scale Discovery K151DWD) according to the manufacturer's protocol. Assay plates were read on a Meso Scale Discovery Sector Imager 6000, and data were analyzed using a 4-parameter logistic model to calculate IC50 values.

[2] = target: GDP-bound KRAS protein (aa 1-169), containing both G12D and C118A amino acid substitutions (Homo sapiens (Human), UniProt P01116, C118A/G12D); test: KRAS G12D Coupled Nucleotide Exchange Assay; type: biochemical
[3] = target: His-tagged KRAS G12D protein (Homo sapiens (Human), UniProt P01116, G12D); test: KRAS G12D TR-FRET Assay; type: binding
Summary of the method: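 Each incubation ran at room temperature: enzyme with compound for 30 minutes, peptide for one hour, and detection reagents (0.4 nM europium anti-6×His, 5 nM streptavidin-d2) for one hour more. Protein and peptide stocks were each diluted to 20 nM before addition.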

[4] = read-out: 2 h p-ERK (AsPC-1 cells)
[5] = 2 hours compound pre-incubation, read-out: KRAS G12D Coupled Exchange
[6] = TR-FRET, read-out: KRAS G12D Binding
[7] = read-out: 2 h p-ERK (AsPC-1 cells), IC50
[8] = read-out: KRAS G12D Coupled Exchange IC50
[9] = read-out: KRAS G12D Binding IC50

Chain of GDP-bound KRAS protein (aa 1-169), containing both G12D and C118A amino acid substitutions (P01116 other isoform, or with tags, fused parts or gaps G12D/C118A): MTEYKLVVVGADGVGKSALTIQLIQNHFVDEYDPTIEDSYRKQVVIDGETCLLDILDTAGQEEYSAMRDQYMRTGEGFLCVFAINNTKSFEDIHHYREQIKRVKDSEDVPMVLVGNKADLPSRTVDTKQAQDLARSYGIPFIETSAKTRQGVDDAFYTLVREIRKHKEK
Chain of His-tagged KRAS G12D protein (P01116 other isoform, or with tags, fused parts or gaps G12D): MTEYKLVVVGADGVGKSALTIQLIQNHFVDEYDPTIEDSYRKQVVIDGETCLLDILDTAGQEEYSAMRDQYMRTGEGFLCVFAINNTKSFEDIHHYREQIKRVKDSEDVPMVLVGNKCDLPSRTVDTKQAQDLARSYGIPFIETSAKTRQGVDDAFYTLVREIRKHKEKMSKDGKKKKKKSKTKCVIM

Compound	IC50 [1, 4] [µM]	IC50 [2, 5] [µM]	IC50 [3, 6] [µM]	IC50 [1, 7] [µM]	IC50 [2, 8] [µM]	IC50 [3, 9] [µM]
CC12CN(CCO1)c1nc(OC[C@@]34CCCN3C[C@H](F)C4)nc3c(F)c(ncc13)-c1c(c(Cl)cc3[nH]ncc13)CCCc1nc2co1 (mixture of isomers) [Example 380]	1.69	0.029	0.155	–	–	–
Fc1c2ncc3c(nc(OC[C@@]45CCCN4C[C@H](F)C5)nc13)N1CCC[C@H](C1)Cn1ncc(n1)[C@@H]1C[C@@H]1c1c(Cl)cc3[nH]ncc3c1-2 (mixture of isomers) [Example 383]	0.0754	0.008	0.013	–	–	–
Cc1cc2[nH]ncc2c2c1CCCOC(=O)O[C@@H]1C[C@H](F)CN(C1)c1nc(OC[C@@]34CCCN3C[C@H](F)C4)nc3c(F)c-2ncc13 (racemic) [Example 95]	–	–	–	2.46	0.036	0.038
Cc1cc2[nH]ncc2c2c1CCCOC(=O)OC1CC[C@@H]3CC[C@H]1N3c1nc(OC[C@@]34CCCN3C[C@H](F)C4)nc3c(F)c-2ncc13 (racemic) [Example 96]	–	–	–	1.38	0.054	0.067
O=C1N[C@H]2CC[C@@H](O)CN(C2)c2nc(OC[C@@]34CCCN3C[C@H](F)C4)nc3c(F)c(ncc23)-c2c(c(Cl)cc3[nH]ncc23)CCCO1 (racemic) [Example 283, (26S,29R)-18-chloro-32-fluoro-4-(((2R,7aS)-2-fluorotetrahydro-1H-pyrrolo[1,2-a]pyrrol-7a(5H)-yl)methoxy)-29-hydroxy-23-oxa-1,3,5,9,14,15,25-heptaazahexacyclo[24.4.1.1~6,10~.0~2,7~.0~11,19~.0~12,16~]dotriaconta-2,4,6(32),7,9,11,13,16,18-nonaen-24-one]	–	–	–	10	1	3.27
Cc1cc2[nH]ncc2c2c1C[C@@H](C)COC(=O)O[C@@H]1CCCN(C1)c1nc(OC[C@@]34CCCN3C[C@H](F)C4)nc3c(F)c-2ncc13 (single isomer, unassigned) [Example 214]	–	–	–	0.496	0.018	0.022
O=C1CCCOc2ccc3[nH]ncc3c2-c2ncc3c(nc(OC[C@@]45CCCN4C[C@H](F)C5)nc3c2F)N2CCC[C@H](C2)O1 [Example 30, (17R)-30-Fluoro-24-(((2R,7aS)-2-fluorotetrahydro-1H-pyrrolo[1,2-a]pyrrol-7a(5H)-yl)methoxy)-11,16-dioxa-5,6,21,23,25,29-hexaazahexacyclo[24.3.1.1˜17,21˜.0˜2,10˜.0˜3,7˜.0˜22,27˜]hentriaconta-1(30),2,4,7,9,22,24,26,28-nonaen-15-one]	–	–	–	1.46	0.141	0.119
O=C1COCCCc2c(Cl)cc3[nH]ncc3c2-c2ncc3c(nc(OC[C@@]45CCCN4C[C@H](F)C5)nc3c2F)N2CCC[C@H](C2)O1 [Example 37, (18R)-9-Chloro-31-fluoro-25-(((2R,7aS)-2-fluorotetrahydro-1H-pyrrolo[1,2-a]pyrrol-7a(5H)-yl)methoxy)-14,17-dioxa-5,6,22,24,26,30-hexaazahexacyclo[25.3.1.1˜18,22˜.0˜2,10˜.0˜3,7˜.0˜23,28˜]dotriaconta-1(31),2,4,7,9,23,25,27,29-nonaen-16-one bis(2,2,2-trifluoroacetate)]	–	–	–	0.058	0.004	0.005
Cc1cc2[nH]ncc2c2c1CCCCC(=O)N[C@@H]1CCCN(C1)c1nc(OC[C@@]34CCCN3C[C@H](F)C4)nc3c(F)c-2ncc13.O=C(O)C(F)(F)F [Example 48, (17R)-30-fluoro-24-(((2R,7aS)-2-fluorotetrahydro-1H-pyrrolo[1,2-a]pyrrol-7a(5H)-yl)methoxy)-9-methyl-5,6,16,21,23,25,29-heptaazahexacyclo[24.3.1.1˜17,21˜.0˜2,10˜.0˜3,7˜.0˜22,27˜]hentriaconta-1(30),2,4,7,9,22,24,26,28-nonaen-15-one 2,2,2-trifluoroacetate]	–	–	–	0.931	0.013	0.014
Cc1cc2[nH]ncc2c2c1CCC[C@H](F)C(=O)N(C)[C@@H]1CCCN(C1)c1nc(OC[C@@]34CCCN3C[C@H](F)C4)nc3c(F)c-2ncc13 [Example 51, (14S,17R)-14,30-difluoro-24-(((2R,7aS)-2-fluorotetrahydro-1H-pyrrolo[1,2-a]pyrrol-7a(5H)-yl)methoxy)-9,16-dimethyl-5,6,16,21,23,25,29-heptaazahexacyclo[24.3.1.1~17,21~.0~2,10~.0~3,7~.0~22,27~]hentriaconta-1(30),2,4,7,9,22,24,26,28-nonaen-15-one]	–	–	–	0.356	0.005	0.01
Cc1cc2[nH]ncc2c2c1CCC[C@@H](F)C(=O)N(C)[C@@H]1CCCN(C1)c1nc(OC[C@@]34CCCN3C[C@H](F)C4)nc3c(F)c-2ncc13 [Example 52, (14R,17R)-14,30-difluoro-24-(((2R,7aS)-2-fluorotetrahydro-1H-pyrrolo[1,2-a]pyrrol-7a(5H)-yl)methoxy)-9,16-dimethyl-5,6,16,21,23,25,29-heptaazahexacyclo[24.3.1.1~17,21~.0~2,10~.0~3,7~.0~22,27~]hentriaconta-1(30),2,4,7,9,22,24,26,28-nonaen-15-one]	–	–	–	0.403	0.012	0.019
Cc1cc2[nH]ncc2c2c1CCCCC(=O)N1CC3(CCCN(C3)c3nc(OC[C@@]45CCCN4C[C@H](F)C5)nc4c(F)c-2ncc34)C1 [Example 56, 32-fluoro-24-(((2R,7aS)-2-fluorotetrahydro-1H-pyrrolo[1,2-a]pyrrol-7a(5H)-yl)methoxy)-10-methyl-3,13,14,19,23,25,27-heptaazaheptacyclo[25.3.1.1~1,3~.1~18,22~.0~9,17~.0~12,16~.0~21,26~]tritriaconta-9,11,14,16,18(32),19,21,23,25-nonaen-4-one]	–	–	–	2.32	0.011	0.02

Next, values leading:

IC50 [1, 4] [µM]	IC50 [2, 5] [µM]	IC50 [3, 6] [µM]	IC50 [1, 7] [µM]	IC50 [2, 8] [µM]	IC50 [3, 9] [µM]	Compound
–	–	–	0.346	0.012	0.019	Cc1cc2[nH]ncc2c2c1[C@H]1C[C@@H]1COC(=O)O[C@@H]1CCCN(C1)c1nc(OC[C@@]34CCCN3C[C@H](F)C4)nc3c(F)c-2ncc13 (racemic) [Example 114]
–	–	–	0.0788	0.005	0.009	O=C1OCCCc2c(Cl)cc3[nH]ncc3c2-c2ncc3c(nc(OC[C@@]45CCCN4C[C@H](F)C5)nc3c2F)N2C[C@H]3C[C@H]3[C@H](C2)O1 (racemic) [Example 179]
–	–	–	0.27	0.012	0.017	O=C1OC/C=C/c2c(Cl)cc3[nH]ncc3c2-c2ncc3c(nc(OC[C@@]45CCCN4C[C@H](F)C5)nc3c2F)N2CCC[C@H](C2)O1 (single isomer, unassigned) [Example 116]
–	–	–	0.0796	0.005	0.006	Cc1cc2[nH]ncc2c2c1CCCC(F)C(=O)N[C@@H]1CCCCN(C1)c1nc(OC[C@@]34CCCN3C[C@H](F)C4)nc3c(F)c-2ncc13 (single isomer, unassigned) [Example 159]
–	–	–	0.108	0.012	0.015	Cc1cc2[nH]ncc2c2c1C[C@H](C)COC(=O)O[C@@H]1CCCN(C1)c1nc(OC[C@@]34CCCN3C[C@H](F)C4)nc3c(F)c-2ncc13 (single isomer, unassigned) [Example 215]
–	–	–	0.169	0.004	0.007	Cc1cc2[nH]ncc2c2c1CCCCC(=O)N(C)[C@@H]1CCCN(C1)c1nc(OC[C@@]34CCCN3C[C@H](F)C4)nc3c(F)c-2ncc13 [Example 50, (17R)-30-fluoro-24-(((2R,7aS)-2-fluorotetrahydro-1H-pyrrolo[1,2-a]pyrrol-7a(5H)-yl)methoxy)-9,16-dimethyl-5,6,16,21,23,25,29-heptaazahexacyclo[24.3.1.1~17,21~.0~2,10~.0~3,7~.0~22,27~]hentriaconta-1(30),2,4,7,9,22,24,26,28-nonaen-15-one]
–	–	–	0.07	0.034	0.079	O=C1CCCCc2c(Cl)cc3[nH]ncc3c2-c2ncc3c(nc(OC[C@@]45CCCN4C[C@H](F)C5)nc3c2F)N2CC[C@@H]3CCN1[C@@H]3C2 [Example 61, (28R,32S)-18-chloro-33-fluoro-4-(((2R,7aS)-2-fluorotetrahydro-1H-pyrrolo[1,2-a]pyrrol-7a(5H)-yl)methoxy)-1,3,5,9,14,15,25-heptaazaheptacyclo[23.5.2.1~6,10~.0~2,7~.0~11,19~.0~12,16~.0~28,32~]tritriaconta-2,4,6,8,10(33),11,13,16,18-nonaen-24-one]
